We go through ten molecules from patent US6342516B1, “Phenylazole compounds, process for producing the same and drugs for hyperlipemia” (Nippon Soda Co., Ltd., priority 1998, dated 2002).

The test system of data set [1] is Lipid peroxidation activity in rat liver microsome. In words: Effect on lipid peroxidation in vitro (rat liver microsome, thiobarbituric acid method). The data set is classed as biochemical. As to conditions: rat liver microsomes, 500 μM cystein and 5 μM ferrous(II) sulfate, malonaldehyde by thiobarbituric acid method; read-out: Lipid Antiperoxidation Activity 50% Inhibition Concentration (IC50). How it is done:
Pharmacological Test Example 2: Effect on lipid peroxidation in vitro
Lipid peroxidation activity in rat liver microsome was determined according to the method of Malvy et al. (Malvy et al., Biochemical and Biophysical Research Communications, 95, 734-737 (1980)). More particularly, 500 μM cystein and 5 μM ferrous(II) sulfate were incubated with rat liver microsomes, and the amount of malonaldehyde produced due to the decomposition of lipid peroxide was determined according to thiobarbituric acid method. The concentration of the compounds required to inhibit the formation of lipid peroxide by 50% (IC50) was calculated.

In data set [2] the test system is cholesterol-fed hamsters. The data set can be described thus: Effect on serum lipids of cholesterol-fed hamsters (serum total cholesterol and triglyceride reduction rate). As to conditions: cholesterol-fed Syrian hamsters, oral once a day for 5 days, dose 25 mg/kg. Format: in vivo. How it is done:
Pharmacological Test Example 1: Effect on serum lipids of cholesterol-fed hamsters
Syrian hamsters (Std:Syrian, Male, 4 weeks old) were freely fed with chow containing 1% cholesterol and 10% coconut oil for 3 weeks ad libitum.
At the last week of feeding, each of the test compounds was dissolved or suspended in either 0.1% hydrochloric acid solution or 1% polyethylene-hydrogenated castor oil (NIKKOL HCO-60) solution and was orally administrated to hamsters once a day for 5 days. For the hamsters of the control group, only the solvent was orally administered. Then, blood was collected from the abdominal vein under the condition of anesthesia with pentobarbital at 2-4 hours after the last administration, and the serum in the blood was separated. The serum total cholesterol value and the serum triglyceride value were determined by using autobiochemical analyzer with analizing kits, and reduction rate of the serum lipids was determined according to the equation indicated below based on the analyzed values for respective hamster groups.
Serum lipids reduction rate (%)=(Amount of serum lipids of the control group−Amount of serum lipids of the group administrated with the test compound)/Amount of serum lipids of the control group×100

The test system of data set [3] is carbon tetrachloride induced liver damage model in rats. In words: Carbon tetrachloride induced liver damage model in rats (lipid peroxide in liver; serum GOT, GPT). Format: in vivo, rats (SD-strain, male). As to conditions: for Antioxidation Activity of Lipid: Mass of lipid peroxide / Antioxidation Activity of Lipid: Prevention Rate: liver at 24 hours; for Preventive Activity on Liver Disorder: GOT / Preventive Activity on Liver Disorder: GOT Prevention Rate / Preventive Activity on Liver Disorder: GPT / Preventive Activity on Liver Disorder: GPT Prevention Rate: serum. How it is done:
Pharmacological Test Example 3: Effect on lipid peroxidation […] Effect of the compounds of the present invention on the produced lipid peroxide in liver was examined on carbon tetrachloride induced liver damage model in rats. Briefly, providing 5 SD-strain male rats (6 weeks old) for each group, carbon tetrachloride at the rate of 1 ml/kg or 2 ml/kg (0.5 ml/kg or 1 ml/kg based on carbon tetrachloride) was orally administered to the rats together with the equivalent dose of olive oil. At 24 hours after the administration of carbon tetrachloride, their livers were excised, and the produced amount of lipid peroxide in liver was determined by thiobarbituric acid method according to Uchiyama's method (Uchiyama, M., et al., Analytical biochemistry, 86, 271-278 (1978)). In parallel, as the indicator for liver disorder due to carbon tetrachloride, serum enzyme activity (GOT, GPT) was measured. Then each of the test compounds, which was either dissolved or suspended in either 0.1% hydrochloric acid solution or olive oil, was orally administered to the rats 3 times at 1 before and, 3 and 6 hours after the administration of carbon tetrachloride. For the rats of normal group and control groups, the solvent was orally administered. Based on the measured values for each groups, the inhibitory rate of producing peroxidized lipids and the inhibitory rate of causing liver disorder were calculated according to the following equation. Inhibitory rate of producing lipid peroxide (%)=[1−(Produced amount of lipid peroxide in the test compound group−Produced amount of lipid peroxide in the normal rat group)/(Produced amount of lipid peroxide in the control group−Produced amount of lipid peroxide in the normal rat group)]×100 Liver disorder preventing rate (%)=[1−(GOT amount of GPT amount in the test compound group−GOT amount or GPT amount in the normal rat group)/(GOT amount or GPT amount in the control group−GOT amount or GPT amount in the normal rat group)]×100 The results are presented in Table 8.

The test system of data set [4] is rats (male SD-strain). The conditions noted are these: rat, in vivo, 100 mg/kg/day. The protocol:
Pharmacological Test Example 4: Repeated Oral Administration Toxicity
The Compound with No. 3-1 was suspended in 1% polyethylene-hardened castor oil (NIKKOL HCO-60) solution, and the suspension was orally administered to rats (male SD-strain), 6 rats per group, at a rate of 100 mg/kg/day for 7 days.

[5] abbreviates: CCl4: 0.5 ml/kg, dose 100 mg/kg oral 3 times.
[6] abbreviates: CCl4: 1 ml/kg, dose 10 mg/kg oral 3 times.

Turning to `Cc1c(C)c2c(c(C)c1O)CCC(C)(CC(=O)Nc1ccc(-n3ccnc3)cc1)O2` (racemic) [3-4], the IC50 in data set [1] is 2300 nM. For the same molecule, in data set [2], the “Serum lipids reduction rate comparing to Control group (%), Means of 3 animals: Total cholesterol” value amounted to 37% and the “Serum lipids reduction rate comparing to Control group (%), Means of 3 animals: Triglyceride” value is 80%.

Consider `Cc1c(C)c2c(c(C)c1O)CC(C)(C(=O)Nc1ccc(-n3ccnc3)cc1)O2` (racemic) [3-9], for which the IC50 in data set [1] was 1900 nM. Further, in data set [2], the “Serum lipids reduction rate comparing to Control group (%), Means of 3 animals: Total cholesterol” value came to 38% and the “Serum lipids reduction rate comparing to Control group (%), Means of 3 animals: Triglyceride” value turned out to be 49%.

Consider `Cc1c(C)c2c(c(C)c1O)CC(C)(CCC(=O)Nc1ccc(-n3ccnc3)cc1)O2` (racemic) [3-10], for which the IC50 in data set [1] turned out to be 2100 nM. Moreover, in data set [2], the “Serum lipids reduction rate comparing to Control group (%), Means of 3 animals: Total cholesterol” value is given as 35% and the “Serum lipids reduction rate comparing to Control group (%), Means of 3 animals: Triglyceride” value amounted to 51%.

Consider `Cc1c(C)c2c(c(C)c1OC(=O)c1ccccc1)CCC(C)(C(=O)Nc1ccc(-n3ccnc3)cc1)O2` (racemic) [3-14], for which the IC50 in data set [1] is 2600 nM. Further, in data set [2], the “Serum lipids reduction rate comparing to Control group (%), Means of 3 animals: Total cholesterol” value is listed as 22% and the “Serum lipids reduction rate comparing to Control group (%), Means of 3 animals: Triglyceride” value is listed as 31%.

`Cc1c(C)c2c(c(C)c1O)CC(C)(C=CC(=O)Nc1ccc(-n3ccnc3)cc1)O2` (racemic) [3-15]: the IC50 in data set [1] is 920 nM. Besides, in data set [2], the “Serum lipids reduction rate comparing to Control group (%), Means of 3 animals: Total cholesterol” value turned out to be 26% and the “Serum lipids reduction rate comparing to Control group (%), Means of 3 animals: Triglyceride” value is 30%.

With `CC(=O)Oc1c(C)c(C)c2c(c1C)CC(C)(C(=O)Nc1ccc(-c3ccn[nH]3)cc1)O2` (racemic) [3-19], the IC50 in data set [1] came out at 420 nM.

For `Cc1c(C)c2c(c(C)c1O)CCC(C)(C(=O)Nc1ccc(-n3ccnc3)cc1)O2` (racemic) [Compound No. 3-1, (±)-(6-Hydroxy-2,5,7,8-tetramethylchroman-2-yl)-N-[4-(imidazol-1-yl)phenyl]carboxamide], in data set [3] (setting [5]), the “Antioxidation Activity of Lipid: Mass of lipid peroxide” value stood at 2.361 A535nm/g lever, the “Antioxidation Activity of Lipid: Prevention Rate” value amounted to 96%, the “Preventive Activity on Liver Disorder: GOT” value stood at 137 IU/L and the “Preventive Activity on Liver Disorder: GOT Prevention Rate” value is 100%. In data set [3] (setting [5]), the “Preventive Activity on Liver Disorder: GPT” value is given as 61 IU/L and the “Preventive Activity on Liver Disorder: GPT Prevention Rate” value amounted to 86%. For the same molecule, the “Repeated oral administration toxicity (death, toxicological symptoms)” value in data set [4] is reported as “neither death nor any toxicological symptoms were observed”. Further, the IC50 in data set [1] came out at 2700 nM. Moreover, in data set [2], the “Serum lipids reduction rate comparing to Control group (%), Means of 3 animals: Total cholesterol” value came out at 40% and the “Serum lipids reduction rate comparing to Control group (%), Means of 3 animals: Triglyceride” value was determined as 62%.

As for `Cc1c(C)c2c(c(C)c1O)CCC(C)(C(=O)Nc1ccc(-c3ccn[nH]3)cc1)O2` (racemic) [Compound No. 3-25, (±)-(6-hydroxy-2,5,7,8-tetramethylchroman-2-yl)-N-[4-(pyrrazol-5-yl)phenyl]carboxamide], the IC50 in data set [1] turned out to be 490 nM.

In the case of `Cc1cc(C(C)(C)C)c(O)c(C(C)(C)C)c1` [BHT, 2,6-t-Dibutyl-p-cresol, reference compound], in data set [1], the IC50 was determined as 2200 nM.

For `CC1=C(C)C(=O)C(C(CCCc2ccccc2)CCC(=O)Nc2ccc(-n3ccnc3)cc2)=C(C)C1=O` (stereo not shown) [Compound No. 3-28, N-[4-(imidazol-1-yl)phenyl]-7-phenyl-4-(3,5,6-trimethyl-1,4-benzoquinon-2-yl)heptanamide], in data set [3] (setting [6]), the “Antioxidation Activity of Lipid: Mass of lipid peroxide” value is 5.781 A535nm/g lever, the “Antioxidation Activity of Lipid: Prevention Rate” value came to 61%, the “Preventive Activity on Liver Disorder: GOT” value amounted to 269 IU/L and the “Preventive Activity on Liver Disorder: GOT Prevention Rate” value is on record as 76%. In addition, in data set [3] (setting [6]), the “Preventive Activity on Liver Disorder: GPT” value came out at 82 IU/L and the “Preventive Activity on Liver Disorder: GPT Prevention Rate” value is reported as 82%. For the same molecule, in data set [1], the IC50 was found to be 3300 nM. Further, in data set [2], the “Serum lipids reduction rate comparing to Control group (%), Means of 3 animals: Total cholesterol” value was 29% and the “Serum lipids reduction rate comparing to Control group (%), Means of 3 animals: Triglyceride” value is given as 23%.
